Read-outs that look alike come from different tables or passages of the source.
Columns and labels:
[1] = tested on: gel-filtered platelets (thrombin-induced aggregation); experiment: In vitro inhibition of thrombin-induced gel-filtered platelet aggregation assay; assay type: cell-based; settings: platelet aggregation stimulated by thrombin, gel-filtered human platelets, read-out: GFP Aggr. IC50
Experimental: In Vitro Inhibition Of Thrombin-induced Gel-filtered Platelet Aggregation Assay
The percentage of platelet aggregation is calculated as an increase in light transmission of compound-treated platelet concentrate vs. control-treated platelet concentrate. Human blood is obtained from drug free, normal donors in tubes containing 0.13M sodium citrate. Platelet rich plasma (PRP) is collected by centrifugation of whole blood at 200×g for 10 min at 25° C. The PRP (5 mL) is gel filtered through Sepharose 2B (bed volume 50 mL), and the platelet count is adjusted to 2×10^7 platelets per sample. The following constituents are added to a siliconized cuvette: concentrated platelet filtrate and Tyrode's buffer (0.14M NaCl, 0.0027M KCl, 0.012M NaHCO3, 0.76 mM Na2HPO4, 0.0055M glucose, 2 mg/mL BSA and 5.0 mM HEPES @ pH 7.4) in an amount equal to 350 μL, 50 μL of 20 mM calcium and 50 μL of the test compound. Aggregation is monitored in a BIODATA aggregometer for the 3 min following the addition of agonist (thrombin 50 μL of 1 unit/mL).

[2] = target: T1, thrombin receptor (PAR-1) (Homo sapiens, UniProt P25116); experiment: In vitro thrombin receptor binding assay (CHRF membranes, tritiated 721-40)
T1 construct: CHRF membranes (Jones, Biochim. Biophys. Acta 1992, 1136, 272) are thawed from −70° C; endogenous in cells; host or cells: CHRF cell membranes
T1 sequence (P25116 22-425): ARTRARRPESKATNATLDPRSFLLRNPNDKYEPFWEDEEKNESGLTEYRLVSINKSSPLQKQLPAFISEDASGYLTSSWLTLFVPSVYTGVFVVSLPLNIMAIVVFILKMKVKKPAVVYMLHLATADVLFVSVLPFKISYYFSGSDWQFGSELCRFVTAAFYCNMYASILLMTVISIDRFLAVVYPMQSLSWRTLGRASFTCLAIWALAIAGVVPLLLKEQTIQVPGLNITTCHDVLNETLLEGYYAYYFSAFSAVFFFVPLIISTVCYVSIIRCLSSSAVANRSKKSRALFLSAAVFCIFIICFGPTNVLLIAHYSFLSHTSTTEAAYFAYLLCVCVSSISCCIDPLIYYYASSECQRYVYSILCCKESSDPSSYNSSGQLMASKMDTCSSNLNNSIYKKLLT
Experimental: In Vitro Thrombin Receptor Binding Assay
CHRF membranes (Jones, Biochim. Biophys. Acta 1992, 1136, 272) are thawed from −70° C., centrifuged at maximum speed for 5 min, washed twice with binding buffer (50 mM HEPES containing 5 mM MgCl2 and 0.1% BSA), and re-suspended in binding buffer ([…]). 100 μL of membranes are added to the 24-Wallac plates and delivered to the Tomtech apparatus. In a typical experiment, 6 μL of samples (from a 125 μg/mL intermediary plate, 20% DMSO) and 44 μL buffer are delivered to the plates (final conc. of compounds is 3.7 μg/mL, 0.6% DMSO). Similarly, 6 μL 20% DMSO and 44 μL buffer are delivered to both column 1 (NSB) and column 12 (TB). 10 μL Ser-pFPhe-Har-Leu-Har-Lys-Tyr-NH2 (721-40; 500 μM in deionized water) is added to column 1. 50 μL tritiated 721-40 (specific activity 46 Ci/mmol) is added to all the wells. The plates are mixed well for 20 seconds, incubated for 30 min, and then harvested with 10 mM HEPES/138 mM NaCl using the Skatron harvester. The filters (GF/C Brandel FPXLR 296) are presoaked 3 h in 0.5% polyethylenimine in HEPES/0.1M N-acetylglucosamine) are set in saran wrap and dried for 3 min in the microwave, and placed in sample bags (Wallac 1450-432). 4.5 mL scintillation fluid (Wallac, Betaplate Scint 1205-440) is added. The bags are sealed, placed in filter cassettes (Wallac 1450-104), and analyzed on the microbeta counter.

[3] = Table 1, read-out: Recptr Bdg. IC50
[4] = Table 2, read-out: Recptr Bdg. IC50

SMILES | IC50 ([1]; Table 1) | IC50 [2, 3] | IC50 ([1]; Table 2) | IC50 [2, 4]
NCCN(CC(=O)NCc1ccccc1)C(=O)[C@H](Cc1ccc(F)c(F)c1)NC(=O)Nc1ccc2c(CN3CCCC3)nn(Cc3c(Cl)cccc3Cl)c2c1 [Compound 1] | 1300 nM | 500 nM | – | –
NCCN(CC(=O)NCc1ccccc1)C(=O)[C@H](Cc1ccc(F)c(F)c1)NC(=O)Nc1ccc2c(CN3CCCC3)cn(Cc3c(Cl)cccc3Cl)c2c1 [Compound 2] | 1700 nM | 300 nM | – | –
NCCCCN(CC(=O)NCc1ccccc1)C(=O)[C@H](Cc1ccc(F)c(F)c1)NC(=O)Nc1ccc2c(CN3CCCC3)nn(Cc3c(Cl)cccc3Cl)c2c1 [Compound 3] | 260 nM | 300 nM | – | –
NCCCCN(CC(=O)NCc1ccccc1)C(=O)[C@H](Cc1ccc(F)c(F)c1)NC(=O)Nc1ccc2c(CN3CCCC3)cn(Cc3c(Cl)cccc3Cl)c2c1 [Compound 4] | 260 nM | 220 nM | – | –
O=C(CN(Cc1ccccc1)C(=O)[C@H](Cc1ccc(F)c(F)c1)NC(=O)Nc1ccc2c(CN3CCCC3)cn(Cc3c(Cl)cccc3Cl)c2c1)NCc1ccccc1 [Compound 5] | 22000 nM | 380 nM | – | –
NCCCN(Cc1cccs1)C(=O)[C@H](Cc1ccc(F)c(F)c1)NC(=O)Nc1ccc2c(CN3CCCC3)cn(Cc3c(Cl)cccc3Cl)c2c1 [Compound 6, Benzene Propanamide, N-(3-aminopropyl)-N-(2-thiophenemethyl)-α-[[[[[1-(2,6-dichlorophenyl)methyl]-3-(1-pyrrolidinylmethyl)-1H-indol-6-yl]amino]carbonyl]amino]-3,4-difluoro-, (αS)-] | 600 nM | 10300 nM | – | –
N=C(N)NCCC[C@H](NC(=O)CN(CCCCCN)C(=O)Nc1ccc2c(CN3CCCC3)cn(Cc3c(Cl)cccc3Cl)c2c1)C(=O)NCc1ccccc1 [Compound 13] | – | – | 1000 nM | > 100000 nM
N=C(N)NCCC[C@H](NC(=O)CN(Cc1ccc(Cl)cc1)C(=O)Nc1ccc2c(CN3CCCC3)cn(Cc3c(Cl)cccc3Cl)c2c1)C(=O)NCc1ccccc1 [Compound 14] | – | – | 6300 nM | 6900 nM
N=C(N)NCCC[C@H](NC(=O)CN(Cc1ccc(F)cc1)C(=O)Nc1ccc2c(CN3CCCC3)cn(Cc3c(Cl)cccc3Cl)c2c1)C(=O)NCc1ccccc1 [Compound 15, N-4-Fluorophenylmethyl-N-{[1-(2,6-dichlorophenyl)methyl-3-(1-pyrrolidinylmethyl)-1H-indol-6-yl]aminocarbonyl}-clycinyl-L-arginin-N-benzyl-amide] | – | – | 2100 nM | 8100 nM

Source: patent US6365617B1, “Indole and indazole urea-peptoids as thrombin receptor antagonists” (Ortho-McNeil Pharmaceutical, Inc., priority 1999, dated 2002)
